Experimental data reported in patent publication US11091421B2, “Benzene fused heterocyclic derivative and pharmaceutical composition comprising the same” (TAIWANJ PHARMACEUTICALS CO., LTD., priority 2017, dated 2021).

What follows are molecules tested against autotaxin (Homo sapiens, UniProt Q13822) (assay: Autotaxin inhibitor screening assay (phosphodiesterase activity, p-nitrophenol cleaved from bis-(p-nitrophenyl) phosphate, absorbance 410 nm)). Settings: compound at 30 μM; BNPP 3 mM, pH 9.0, 37° C., 30 minutes.
Type: biochemical
Method: As described above, the compounds in the present disclosure have the effect of inhibiting the activity of autotaxin, and can be used as autotaxin inhibitors. One method for inhibiting activity of autotaxin in environment is administering to the environment an effective amount of the compound of Formula (I). Please refer to the following experiment, the phosphodiesterase activity of autotaxin was measured using the p-nitrophenol that is a yellow product cleaved by autotaxin from the bis-(p-nitrophenyl) phosphate. Compound samples (10 μl) were incubated with autotaxin (10 μl) in a final volume of 200 μl assay buffer (5 mM CaCl2, 50 mM Tris-HCl, pH 9.0) containing bis-(p-nitrophenyl) phosphate (BNPP) at a final concentration of 3 mM at 37° C. After 30 minutes, absorbance at 410 nm of the reacted solution was measured. The percent inhibition for each test article (TA) (compound) was determined using the following equation. % Inhibition=(O.D.vehicle−O.D.TA)/O.D.vehicle×100

| Structure (SMILES) | Inhibition |
| --- | --- |
| O=C1c2cc(O)ccc2CC1CC1CCN(C(=O)OCc2cc(Cl)cc(Cl)c2)CC1 (centres unmarked) [Compound 119] | B (50%~80% inhibition at 30 μM) |

Same assay, conditions: pH 9

| Structure (SMILES) | inhibition at 30 µM |
| --- | --- |
| O=C(Nc1ccc2c(c1)CC(Cc1ccc(C(=O)O)cc1)C2)OCc1ccccc1 (centres unmarked) [Compound 110] | 50 to 80% |

Same assay, conditions: pH 9, compound at 30 μM; BNPP 3 mM, pH 9.0, 37° C., 30 minutes; read-out: Inhibition

| Structure (SMILES) | inhibition at 30 µM |
| --- | --- |
| O=C(CCc1ccc(CC2CCc3cc(O)ccc3C2=O)cc1)c1ccc(F)c(F)c1 (centres unmarked) [Compound 81] | 50 to 80% |
| O=C(O)c1cccc(/C=C2\Cc3ccc(OCc4ccc(F)c(F)c4)cc3C2=O)c1 [Compound 9] | < 50% |
| O=C(Nc1ccc(CC2CCc3cc(O)ccc3C2=O)cc1)OCc1cc(Cl)cc(Cl)c1 (centres unmarked) [Compound 70] | > 80% |
| O=C(O)c1ccc(CN2CCc3cc(OCc4cc(F)c(F)cc4F)ccc3C2=O)cc1 [Compound 77] | 50 to 80% |
| CS(=O)(=O)c1ccc(COc2ccc3c(c2)C/C(=C\c2ccc(F)c(Cl)c2)C3=O)cc1 [Compound 126] | < 50% |
| O=C(Nc1ccc(CC2CCc3cc(O)ccc3C2=O)cc1)Nc1cc(Cl)cc(Cl)c1 (centres unmarked) [Compound 118] | < 50% |
| O=C(NCCc1ccc(Cl)c(Cl)c1)c1ccc(CC2CCc3cc(O)ccc3C2=O)cc1 (centres unmarked) [Compound 60] | 50 to 80% |
| O=C(O)c1ccc(COc2ccc3c(c2)C/C(=C\CCc2cc(Cl)cc(Cl)c2)C3=O)cc1 [Compound 17] | > 80% |
| O=C(O)c1ccc(COc2ccc3c(c2)C/C(=C\c2ccc(OCc4cc(F)c(F)cc4F)c(F)c2)C3=O)cc1 [Compound 15] | 50 to 80% |
| CS(=O)(=O)NC(=O)c1ccc(COc2ccc3c(c2)C/C(=C\c2cc(Cl)cc(Cl)c2)C3=O)cc1 [Compound 125] | > 80% |
| O=C1/C(=C/c2cccc(C(F)(F)F)c2)CCc2cc(OCc3ccc(F)c(F)c3)ccc21 [Compound 93] | 50 to 80% |
| O=C(O)c1ccc(COc2ccc3c(c2)C/C(=C\c2ccc(OCCOc4ccc(F)cc4F)cc2)C3=O)cc1 [Compound 16] | 50 to 80% |
| O=C(O)c1ccc(COc2ccc3c(c2)C/C(=C\c2ccc(-c4ccc(F)cc4)cc2)C3=O)cc1 [Compound 12] | > 80% |
| O=C(NCCO)c1ccc(CC2CCc3cc(OCc4cc(F)c(F)cc4F)ccc3C2=O)cc1 (centres unmarked) [Compound 45] | 50 to 80% |
| COC(=O)c1ccc(COc2ccc3c(c2)O/C(=C\c2ccc(F)c(F)c2)C3=O)cc1 [Compound 89] | 50 to 80% |
| O=C(O)c1ccc(COc2ccc3c(c2)C/C(=C\c2cc(F)c(F)c(F)c2)C3=O)cc1 [Compound 18] | 50 to 80% |
| O=C(O)c1ccc(COc2ccc3c(c2)C/C(=C\c2ccc(OCc4cc(F)c(F)cc4F)cc2)C3=O)cc1 [Compound 14] | > 80% |
| O=C(Nc1ccc(F)c(F)c1)c1ccc2c(c1)C(=O)N(Cc1cccc(C(F)(F)F)c1)C2=O [Compound 96] | 50 to 80% |
| O=C(O)c1ccc(COc2ccc3c(c2)C/C(=C\c2ccc(Cl)cc2)C3=O)cc1 [Compound 5] | > 80% |
| O=C(OCc1ccc(F)c(F)c1)c1ccc(CC2CCc3cc(OCc4ccc(F)c(F)c4)ccc3C2=O)cc1 (centres unmarked) [Compound 58] | > 80% |
| O=C(NCc1cc(F)ccc1F)c1ccc(/C=C2\Cc3cc(O)ccc3C2=O)cc1 [Compound 33] | 50 to 80% |
| O=C(O)c1ccc(CC2CCc3c(OCc4cc(F)c(F)cc4F)cccc3C2=O)cc1 (centres unmarked) [Compound 47] | 50 to 80% |

| Structure (SMILES) | inhibition at 30 µM |
| --- | --- |
| O=C(O)Cc1ccc(COc2ccc3c(c2)C/C(=C\c2cc(Cl)cc(Cl)c2)C3=O)cc1 [Compound 130] | > 80% |
| COC(=O)c1ccc(COc2ccc3c(c2)C/C(=C\c2ccc(Cl)c(F)c2)C3=O)cc1 [Compound 88] | > 80% |
| O=C(O)c1ccc(COc2ccc3c(c2)C/C(=C\c2ccc(Cl)c(F)c2)C3=O)cc1 [Compound 13] | > 80% |
| O=C(Nc1ccc2c(c1)C/C(=C\c1ccc(C(=O)O)cc1)C2=O)OCc1ccccc1 [Compound 28] | < 50% |
| O=C(O)c1cc(CC2CCc3cc(OCCc4cc(F)ccc4F)ccc3C2=O)ccc1O (centres unmarked) [Compound 52] | 50 to 80% |
| O=C1/C(=C/c2cccc(C(F)(F)F)c2)Cc2ccc(OCc3ccc(F)c(F)c3)cc21 [Compound 7] | 50 to 80% |
| O=C(OCc1cc(F)c(F)cc1F)c1ccc(CC2Cc3ccc(O)cc3C2=O)cc1 (centres unmarked) [Compound 34] | 50 to 80% |
| O=C(Nc1ccc2c(c1)C/C(=C\c1cccc(C(F)(F)F)c1)C2=O)OCc1ccccc1 [Compound 26] | < 50% |
| O=C(NCc1ccc(F)c(F)c1)c1ccc(CC2CCc3cc(O)ccc3C2=O)cc1 (centres unmarked) [Compound 59] | 50 to 80% |
| O=C(O)COc1ccc(COc2ccc3c(c2)C/C(=C\c2cc(Cl)cc(Cl)c2)C3=O)cc1 [Compound 131] | > 80% |
| O=C(Cc1ccc(F)c(F)c1)Nc1ccc(CC2CCc3cc(O)ccc3C2=O)cc1 (centres unmarked) [Compound 69] | < 50% |
| CS(=O)(=O)N1CCN(C(=O)c2ccc(COc3ccc4c(c3)C/C(=C\c3cc(Cl)cc(Cl)c3)C4=O)cc2)CC1 [Compound 121] | < 50% |
| O=C(NCc1cc(F)ccc1F)c1ccc(CC2CCc3cc(O)ccc3C2=O)cc1 (centres unmarked) [Compound 56] | < 50% |
| O=C(O)c1ccc(/C=C2\CCc3cc(OCCc4ccc(F)cc4)ccc3C2=O)cc1 [Compound 50] | 50 to 80% |
| O=C(Nc1ccc2c(c1)C/C(=C\c1ccc(C(F)(F)F)cc1)C2=O)OCc1ccccc1 [Compound 27] | < 50% |
| O=C(OCc1cc(F)c(F)cc1F)c1ccc(CC2CCc3cc(O)ccc3C2=O)cc1 (centres unmarked) [Compound 57] | > 80% |
| CNC(=O)c1ccc(COc2ccc3c(c2)C/C(=C\c2cc(Cl)cc(Cl)c2)C3=O)cc1 [Compound 120] | > 80% |
| O=C1/C(=C/c2ccc(C(F)(F)F)cc2)Cc2ccc(OCc3ccc(F)c(F)c3)cc21 [Compound 6] | < 50% |
| O=C(O)c1ccc(CC2CCc3cc(OCCc4ccc(F)cc4)ccc3C2=O)cc1 (centres unmarked) [Compound 51] | > 80% |
| O=C1/C(=C/c2ccc(OCc3cc(F)c(F)cc3F)cc2)CCc2cc(O)ccc21 [Compound 99] | < 50% |
| O=C1c2ccc(O)cc2CCC1CN1CCN(C(=O)OCc2cc(Cl)cc(Cl)c2)CC1 (centres unmarked) [Compound 85] | > 80% |
| O=C(O)c1ccc(COc2ccc3c(c2)C/C(=C\c2cc(F)c(F)cc2F)C3=O)cc1 [Compound 21] | > 80% |

| Structure (SMILES) | inhibition at 30 µM |
| --- | --- |
| O=C(OCc1cc(F)ccc1F)c1ccc(CC2CCc3cc(OCc4cc(F)ccc4F)ccc3C2=O)cc1 (centres unmarked) [Compound 62] | > 80% |
| O=C1/C(=C/c2ccc(OCCc3ccc(F)cc3)cc2)CCc2cc(O)ccc21 [Compound 100] | < 50% |
| O=C1/C(=C/c2ccc(C(F)(F)F)cc2)CCc2cc(OCc3ccc(F)c(F)c3)ccc21 [Compound 92] | 50 to 80% |
| CNS(=O)(=O)c1ccc(COc2ccc3c(c2)C/C(=C\c2cc(Cl)cc(Cl)c2)C3=O)cc1 [Compound 123] | < 50% |
| O=C(O)c1ccc(COc2ccc3c(c2)C/C(=C\c2cc(Cl)cc(Cl)c2)C3O)cc1 (centres unmarked) [Compound 133] | 50 to 80% |
| O=C(Nc1ccc2c(c1)C(=O)N(Cc1ccc(C(F)(F)F)cc1)C2=O)OCc1ccccc1 [Compound 38] | < 50% |
| CS(=O)(=O)c1ccc(COc2ccc3c(c2)C/C(=C\c2cc(Cl)cc(Cl)c2)C3=O)cc1 [Compound 122] | < 50% |
| O=C(NCc1cc(F)ccc1F)c1ccc(CC2Cc3cc(O)ccc3C2=O)cc1 (centres unmarked) [Compound 32] | < 50% |
| O=C(O)c1ccc(COc2ccc3c(c2)C/C(=C\c2cc(Cl)cc(Cl)c2)C3=O)cc1 [Compound 20, (E)-4-(((2-(3,5-dichlorobenzylidene)-1-oxo-2,3-dihydro-1H-inden-5-yl)oxy)methyl)benzoic acid] | > 80% |
| CN(Cc1cc(F)c(F)cc1F)C(=O)c1ccc(CC2CCc3cc(O)ccc3C2=O)cc1 (centres unmarked) [Compound 61] | 50 to 80% |
| O=C(Nc1ccc(CC2CCc3cc(O)ccc3C2=O)cc1)OCc1ccc(Cl)c(Cl)c1 (centres unmarked) [Compound 68] | > 80% |
| O=C1c2cc(O)ccc2CC1CC1CCN(C(=O)OCc2cc(Cl)cc(Cl)c2)CC1 (centres unmarked) [Compound 117] | < 50% |
| O=C1c2ccc(O)cc2CCC1Cc1ccc(OCCOc2ccc(F)cc2F)cc1 (centres unmarked) [Compound 102] | 50 to 80% |
| CS(=O)(=O)Cc1ccc(COc2ccc3c(c2)C/C(=C\c2cc(Cl)cc(Cl)c2)C3=O)cc1 [Compound 124] | < 50% |
| O=C(NO)c1ccc(COc2ccc3c(c2)C/C(=C\c2cc(Cl)cc(Cl)c2)C3=O)cc1 [Compound 128] | 50 to 80% |
| COC(=O)c1ccc(COc2ccc3c(c2)C/C(=C\c2cc(Cl)cc(Cl)c2)C3=O)cc1 [Compound 132] | < 50% |
| O=C1c2ccc(OCCc3cc(F)ccc3F)cc2CCC1Cc1ccc(O)c(O)c1 (centres unmarked) [Compound 53] | > 80% |
| O=C(O)c1ccc(COc2ccc3c(c2)CC(Cc2cc(Cl)cc(Cl)c2)C3=O)cc1 (centres unmarked) [Compound 134] | > 80% |
| O=C(Nc1ccc(CC2CCc3cc(O)ccc3C2=O)cc1)OCc1cc(F)c(F)cc1F (centres unmarked) [Compound 71] | 50 to 80% |
| O=C(O)c1ccc(/C=C2\Cc3cccc(OCc4cc(F)c(F)cc4F)c3C2=O)cc1 [Compound 11] | 50 to 80% |
| O=C(O)c1ccc(/C=C2\Cc3ccc(OCc4ccc(F)c(F)c4)cc3C2=O)cc1 [Compound 8] | < 50% |
| O=C(O)c1ccc(CC2CCc3cc(OCc4cc(F)c(F)cc4F)ccc3C2=O)cc1 (centres unmarked) [Compound 44] | < 50% |
